Laboratory results as given in publication PMC3985514 (Biochemistry, 2014).
Values joined by “and” are separate entries in the source; they are usually repeats but may differ in a detail not shown here. Equal entries are not always repeated. Where two headings read alike, the source gives them in different places.

Target: Mtb NDH-2 (Mycobacterium tuberculosis, UniProt P95160)
Type: biochemical

Mtb NDH-2, sequence (P95160 whole entry): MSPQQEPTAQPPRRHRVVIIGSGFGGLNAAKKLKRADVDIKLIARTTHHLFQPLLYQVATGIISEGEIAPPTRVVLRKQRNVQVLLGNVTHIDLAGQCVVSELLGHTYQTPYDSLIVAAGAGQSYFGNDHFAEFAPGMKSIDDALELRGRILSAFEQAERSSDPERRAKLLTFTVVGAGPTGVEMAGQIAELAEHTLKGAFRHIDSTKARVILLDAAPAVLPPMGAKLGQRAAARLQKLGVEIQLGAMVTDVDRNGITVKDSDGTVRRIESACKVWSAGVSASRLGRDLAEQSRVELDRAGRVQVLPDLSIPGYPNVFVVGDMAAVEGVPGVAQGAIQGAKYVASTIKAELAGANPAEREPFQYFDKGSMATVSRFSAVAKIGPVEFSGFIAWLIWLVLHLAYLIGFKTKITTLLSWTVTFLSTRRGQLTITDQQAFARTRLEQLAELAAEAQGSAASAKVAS

NC(=O)C1=CN([C@@H]2O[C@H](COP(=O)(O)OP(=O)(O)OC[C@H]3O[C@@H](n4cnc5c(N)ncnc54)[C@H](O)[C@@H]3O)[C@@H](O)[C@H]2O)C=CC1 [NADH, nicotinamide adenine dinucleotide, reduced form]
Km (read-out: KM for NADH (average), membrane-bound NDH-2 with UQ0, average): 280 µM | Km (read-out: KM^NADH): 240 µM and 320 µM

COC1=C(OC)C(=O)C(C)=CC1=O [UQ0]
kcat: 570.0 ± 200 s^–1 | kcat ([…], NADH oxidation with the quinone as electron acceptor, [NADH] varied): 580.0 ± 170 s^–1 | kcat ([…], ratio plot, [UQ0] = 6.25[NADH]): 330 ± 15 s^–1 | Vmax (membrane-bound NDH-2, both with and without UQ1H2): 0.12 ± 0.01 A340 min^–1 nM^–1 | Km (read-out: apparent KM value for UQ0, membrane-bound NDH-2, absence of UQ1H2 (Figure 6C)): 350 ± 7 µM

COc1c(O)c(C)c(CC=C(C)C)c(O)c1OC [UQ1H2]
inhibition (1.0 mM UQ1H2, 0.05 mM UQ1 as electron acceptor, membrane-bound NDH-2): 30 ± 10% | increase in activity (UQ0 as electron acceptor, membrane-bound NDH-2): up to 5 fold
